Data published in ChEMBL document CHEMBL1127341, “Synthesis and biological evaluation of 5-[[3,5-bis(1,1-dimethylethyl)- 4-hydroxyphenyl]methylene]oxazoles, -thiazoles, and -imidazoles: novel dual 5-lipoxygenase and cyclooxygenase inhibitors with antiinflammatory activity” (J Med Chem, 1994).

Tests used:
Type in all cases: functional
Rattus norvegicus [1] = assay: 40% inhibition of induced edema in the rat mycobacterium foot-pad edema test
Rattus norvegicus [2] = assay: Inhibition of rat carrageenan induced foot-pad edema at a dose of 10 mg/kg on peroral administration; conditions: route oral
Rattus norvegicus [3] = assay: Inhibition of rat carrageenan induced foot-pad edema at a dose of 30 mg/kg on peroral administration; conditions: route oral

Question: How did the ID40 (Rattus norvegicus [1]) turn out when `Cc1ccc(Cl)c(Nc2ccccc2C(=O)[O-])c1Cl.O.[Na+]` [MECLOFENAMATE SODIUM] was run?
Answer: 0.4 mg/kg

Question: And the inhibition in vivo at 10 mg/kg (Rattus norvegicus [2])?
Answer: 34%

Question: And the inhibition in vivo at 30 mg/kg (Rattus norvegicus [3])?
Answer: 41%
